The values below come from patent US20260183274A1, “PDK1 REGULATORY COMPOUND AND COMPOSITION CONTAINING THE SAME” (PROVIBIO CO., LTD., priority 2024, published 2026).

This test concerns T cells isolated from mouse spleens. Kind of test: T cell proliferation inhibition (CFSE flow cytometry, anti-CD3/anti-CD28 stimulation). Type of test: cell-based. The conditions noted are these: mouse spleen T cells, 3 days; for inhibition at 0.01 µM / inhibition at 0.1 µM / inhibition at 1 µM / inhibition at 10 µM / inhibition at 30 µM / inhibition at 50 µM: Mus musculus, T-cell, 72 h, read-out: Proliferation inhibition rate (%). Here is the method: To verify the T cell proliferation inhibitory effect of the compounds according to the present invention, the following experiment was performed based on flow cytometry analysis using carboxyfluorescein diacetate succinimidyl ester (CFSE), a fluorescent dye that binds to intracellular molecules via covalent bonds.
Spleens were extracted from 7-week-old C57BL/6 mice, ground, and then separated into single cells using a strainer (40 μm pore size, SPL). Red blood cells were removed using ACK (Ammonium-Chloride-Potassium) lysis buffer to isolate white blood cells.
Finally, using a MACS Magnetic Stand and LS column, T cells were isolated from the spleen.
The T cells isolated from the spleen were resuspended in 1 mL of free medium (RPMI-1640+200 U/mL penicillin+200 μg/mL streptomycin), and 0.3 μL of CFSE (10 mM) was added. The mixture was incubated at 37° C. for 5 minutes.
Free medium (10 mL) was added to stop the reaction, and the cells were centrifuged to obtain the cell pellet.
RPMI 1640 medium containing 10% FBS, 100 U/mL penicillin, 100 μg/mL streptomycin, and resuspended the cells. The cells were then seeded into a 96-well plate at a density of 2×10^5 cells per well and activated with CD3 and CD28 antibodies (0.5 μg/mL each) to activate T cells.
The compound diluted in DMSO was added at concentrations of 10 nM, 100 nM, 1 μM, 10 μM, 30 μM, and 50 μM, with three wells per concentration, and cultured at 37° C. and 5% CO2 for three days. The cells were then analyzed using a FACS Canto instrument.
The proliferation inhibition rate (%) was calculated using the following formula: […]
For orientation: In flow cytometry, cells or beads pass a laser one at a time.

For `N#CCCCCCCCCCCNC(=O)c1cccnc1N` [Compound 79, 2-amino-N-(10-cyano-decyl)-nicotinamide], under “compound 10 nM”, the inhibition at 0.01 µM is -2.19%. Also, the inhibition at 0.1 µM (compound 100 nM) was 1.23%. For the setting “compound 1 μM”, the inhibition at 1 µM turned out to be 7.12%. The inhibition at 10 µM (compound 10 μM) is 11%. For the same compound, for the setting “compound 30 μM”, the inhibition at 30 µM came out at 27.9%. In addition, the inhibition at 50 µM (compound 50 μM) was determined as 34.7%.

Turning to `CN1CCN(CCCCCCCCCCCCNC(=O)c2ccccc2-c2ncc[nH]2)CC1` [Compound 192, 2-(1H-imidazol-2-yl)-N-(12-(4-methylpiperazin-1-yl)dodecyl)benzamide], the inhibition at 0.01 µM (compound 10 nM) was -3.25%. Besides, the inhibition at 0.1 µM (compound 100 nM) is -0.84%. Moreover, for the setting “compound 1 μM”, the inhibition at 1 µM came out at 0.96%. For the same compound, the inhibition at 10 µM (compound 10 μM) stood at 99.8%. Under “compound 30 μM”, the inhibition at 30 µM was 100%. For the same compound, the inhibition at 50 µM (compound 50 μM) is 100%.

With `Nc1nc(NC(=O)CCCCCCCCCCCCN2CCC(O)CC2)nc2nc[nH]c12` [Compound 13, 12-(4-hydroxypiperidin-1-yl)dodecyl-N-(6-aminopurine-2-yl) carboxamide], the “Proliferation inhibition rate (%)” value is, setting by setting: (compound 10 nM, listed as GO87, 0.01 µM) 9.13%; (compound 100 nM, listed as GO87, 0.1 µM) 1.71%; (compound 10 μM, listed as GO87, 10 µM) 81.15%.

For `Nc1ncccc1C(=O)NCCCCCCCCCCCCN1CCC(F)CC1` [Compound 115, 2-amino-N-(12-(4-fluoropiperidin-1-yl)dodecyl)nicotinamide], the inhibition at 0.01 µM (compound 10 nM) is -11.4%. The inhibition at 0.1 µM (compound 100 nM) stood at 100%. The inhibition at 1 µM (compound 1 μM) is 100%. The inhibition at 10 µM (compound 10 μM) stood at 100%. The inhibition at 30 µM (compound 30 μM) is 100%. For the same compound, the inhibition at 50 µM (compound 50 μM) amounted to 100%.

For `C[C@@H]1CN(CCCCCCCCCCCCNC(=O)c2cccnc2N)C[C@H](C)O1` [Compound 110, 2-amino-N-(12-((2S,6R)-2,6-dimethylmorpholino)dodecyl)nicotinamide], the inhibition at 0.01 µM (compound 10 nM) is -36.7%. Moreover, for the setting “compound 100 nM”, the inhibition at 0.1 µM was determined as 100%. Moreover, the inhibition at 1 µM (compound 1 μM) was 100%. For the same compound, under “compound 10 μM”, the inhibition at 10 µM turned out to be 100%. Besides, the inhibition at 30 µM (compound 30 μM) was determined as 100%. Further, for the setting “compound 50 μM”, the inhibition at 50 µM was 100%.

For `CC(C)(C)OC(=O)N[C@@H]1CCCN(CCCCCCCCCCCCNC(=O)c2cccnc2N)C1` [Compound 117, tert-butyl-(R)-(1-(12-(2-aminonicotinamido)dodecyl)piperidin-3-yl) carbamate], the “Proliferation inhibition rate (%)” value reads like this: (compound 10 nM) −15.79%; (compound 100 nM) 100.00%; (compound 1 μM) 100.00%; (compound 10 μM) 100.00%; (compound 30 μM) 100.00%; (compound 50 μM) 100.00%.

Regarding `CN1CCN(CCCCCCCCCCCCNC(=O)c2cccc(N)c2I)CC1` [Compound 197, 3-Amino-2-iodo-N-(12-(4-methylpiperazin-1-yl)dodecyl)benzamide], under “compound 10 nM”, the inhibition at 0.01 µM came to 7.81%. Moreover, the inhibition at 0.1 µM (compound 100 nM) is 10.3%. For the same compound, the inhibition at 1 µM (compound 1 μM) came out at 16.4%. Also, the inhibition at 10 µM (compound 10 μM) was found to be 98%. Moreover, the inhibition at 30 µM (compound 30 μM) turned out to be 100%. Under “compound 50 μM”, the inhibition at 50 µM is 100%.

Take `CN1CCN(CCCCCCCCCCCCNC(=O)c2ccc(F)cn2)CC1` [Compound 203, 5-Fluoro-N-(12-(4-methylpiperazin-1-yl)dodecyl)picolinamide]: the inhibition at 0.01 µM (compound 10 nM) is -4.49%. The inhibition at 0.1 µM (compound 100 nM) amounted to 1.16%. Also, under “compound 1 μM”, the inhibition at 1 µM was 6.8%. In addition, the inhibition at 10 µM (compound 10 μM) was determined as 100%. Also, under “compound 30 μM”, the inhibition at 30 µM was determined as 100%. Moreover, for the setting “compound 50 μM”, the inhibition at 50 µM stood at 100%.

For the compound `CN1CCN(CCCCCCCCCCCCNC(=O)c2ccnc(Cl)c2Cl)CC1` [Compound 198, 2,3-Dichloro-N-(12-(4-methylpiperazin-1-yl)dodecyl)isonicotinamide], the inhibition at 0.01 µM (compound 10 nM) came to 5.35%. Moreover, the inhibition at 0.1 µM (compound 100 nM) amounted to 9.41%. Further, the inhibition at 1 µM (compound 1 μM) amounted to 20.1%. For the same compound, the inhibition at 10 µM (compound 10 μM) came out at 100%. For the same compound, the inhibition at 30 µM (compound 30 μM) came out at 100%. Also, where the note is “compound 50 μM”, the inhibition at 50 µM was 100%.

For `Nc1ncccc1C(=O)NCCCCCCCCCCCCNC1CCOC1` (centres unmarked) [Compound 128, 2-amino-N-(12-((tetrahydrofuran-3-yl)amino)dodecyl) nicotinamide], the “Proliferation inhibition rate (%)” value by setting is: (compound 10 nM) −7.16%; (compound 100 nM) 100.00%; (compound 1 μM) 100.00%; (compound 10 μM) 100.00%; (compound 30 μM) 100.00%; (compound 50 μM) 100.00%.

For `CC(C)N1CCN(CCCCCCCCCCCCNC(=O)c2cccnc2N)CC1` [Compound 104, 2-Amino-N-(12-(4-isopropylpiperazin-1-yl)dodecyl) nicotinamide], the “Proliferation inhibition rate (%)” value reads like this: (compound 10 nM) 100.00%; (compound 100 nM) 100.00%; (compound 1 μM) 100.00%; (compound 10 μM) 100.00%; (compound 30 μM) 100.00%; (compound 50 μM) 100.00%.

With `Nc1ncccc1C(=O)NCCCCCCCCCCCCN1CCC(O)CC1` [Compound 48, 2-Amino-N-(12-(4-hydroxypiperidin-1-yl)dodecyl) nicotinamide], the “Proliferation inhibition rate (%)” value by setting is: (compound 10 nM, listed as PBK-2025-012, 0.01 µM) −18.31%; (compound 100 nM) 100.00%; (compound 1 μM) 100.00%; (compound 10 μM) 100.00%; (compound 30 μM) 100.00%; (compound 50 μM) 100.00%.

On to `Nc1ncccc1C(=O)NCCCCCCCCCCCCn1ccc2ccc(I)cc21` [Compound 106, 2-Amino-N-(12-(6-iodo-1H-indol-1-yl)dodecyl)nicotinamide], for which the inhibition at 0.01 µM (compound 10 nM) came out at 0.44%. Also, the inhibition at 0.1 µM (compound 100 nM) is -1.9%. In addition, the inhibition at 1 µM (compound 1 μM) came out at 0.44%. In addition, the inhibition at 10 µM (compound 10 μM) was 100%. For the same compound, the inhibition at 30 µM (compound 30 μM) is 100%. Moreover, where the note is “compound 50 μM”, the inhibition at 50 µM turned out to be 100%.

`Nc1ncccc1C(=O)NCCCCCCCCCCCCN1CCN(C=O)CC1` [Compound 97, 2-amino-N-(12-(4-formylpiperazin-1-yl)dodecyl) nicotinamide]: the “Proliferation inhibition rate (%)” value is reported as 3.51% (compound 10 nM); 40.64% (compound 100 nM); 100.00% (compound 1 μM); 100.00% (compound 10 μM); 100.00% (compound 30 μM); 100.00% (compound 50 μM).

`CN1CCN(CCCCCCCCCCCCNC(=O)c2cccnc2Cl)CC1` [Compound 118, 2-chloro-N-(12-(4-methylpiperazin-1-yl)dodecyl)nicotinamide]: where the note is “compound 10 nM”, the inhibition at 0.01 µM was determined as 4.24%. Moreover, the inhibition at 0.1 µM (compound 100 nM) was 4.82%. Also, for the setting “compound 1 μM”, the inhibition at 1 µM was 12.6%. For the same compound, the inhibition at 10 µM (compound 10 μM) was 34.5%. Moreover, the inhibition at 30 µM (compound 30 μM) worked out at 88.6%. Further, the inhibition at 50 µM (compound 50 μM) stood at 100%.

Take `CN1CCN(CCCCCCCCCCCCNC(=O)c2cnccc2N)CC1` [Compound 212, 4-Amino-N-(12-(4-methylpiperazin-1-yl)dodecyl)nicotinamide]: the “Proliferation inhibition rate (%)” value (compound 10 nM, listed as KP-64, 0.01 µM) is reported as −2.89%; the “Proliferation inhibition rate (%)” value (compound 100 nM, listed as KP-64, 0.1 µM) is listed as −3.91%; the “Proliferation inhibition rate (%)” value (compound 1 μM, listed as KP-64, 1 µM) was −4.34%; the “Proliferation inhibition rate (%)” value (compound 10 μM, listed as KP-64, 10 µM) came out at 20.55%; the “Proliferation inhibition rate (%)” value (compound 30 μM, listed as KP-64, 30 µM) came out at 71.78%.

Regarding `CS(=O)(=O)c1ncccc1C(=O)NCCCCCCCCCCCCF` [Compound 67, N-(12-fluoro-dodecyl)-2-methylsulfonyl-nicotinamide], the inhibition at 0.01 µM (compound 10 nM) is 0%. In addition, the inhibition at 0.1 µM (compound 100 nM) was 0%. For the same compound, for the setting “compound 1 μM”, the inhibition at 1 µM is 0%. In addition, the inhibition at 10 µM (compound 10 μM) was -3.83%. In addition, where the note is “compound 30 μM”, the inhibition at 30 µM stood at 73.8%. Besides, the inhibition at 50 µM (compound 50 μM) worked out at 100%.
